Marks after values point to notes of the source that are not given here.
Tested on: GLP1R humanized mice
Assay: GLP1-induced hypoglycemia (Exendin-4 challenge) in GLP1R humanized mice, glucose AUC (Example 6)
Assay type: in vivo
Details: for Normalized glucose AUC during Exendin-4 challenge: Exendin-4 at 0-min, test article 10 mg/kg s.c., mean
Procedure: Thirty-nine, 2.5-month-old male GLP1R humanized mice were randomly divided into one group of sixteen mice, two groups of eight mice, and one group of seven mice. On Day 0, the group of sixteen animals (Groups 1 and 2) were administered subcutaneously (s.c.) with a hIgG4 isotype control antibody (referred to as isotype control, dose of 10 mg/kg). […] The group of seven animals (Group 5) was administered s.c. (dose of 10 mg/kg) with mAb36986. […] […] At the same time point, animals in Groups 3, 4, and 5 were administered i.p. with Exendin-4 (dose of 0.01 mg/kg). For all animals, blood glucose levels were measured with a handheld glucometer immediately before and 15, 30, 60, and 120 minutes after saline or Exendin-4 administration. All animals remained in their assigned groups until the study completion on Day 80. With animals in Groups 1, 2, 4, and 5, the Exendin-4 challenge was repeated on Days 3, 7, 15, 21, 29, 65, and 80.
The AUC value of each animal at each challenge was normalized to the mean AUC value of Group 1. Statistical analyses were performed by one-way ANOVA followed by Bonferroni post-hoc tests, comparing Groups 1, 3, 4, or 5 to Group 2, for each challenge.

Exendin-3 (9-39) amide [Exendin-9, reference compound]
correction of Exendin-4 induced hypoglycemia (10 mg/kg s.c.): correction of Exendin-4 induced hypoglycemia when Exendin-4 challenge was performed 30 minutes post Exendin-9 administration, but not when the challenge was performed 4.5 or 24 hours post Exendin-9 administration
Normalized glucose AUC during Exendin-4 challenge (0.5 h post test article): 101.3**** % of Group 1
Normalized glucose AUC during Exendin-4 challenge (4.5 h post test article): 70.1 % of Group 1
Normalized glucose AUC during Exendin-4 challenge (24 h post test article): 74.1 % of Group 1
